Assay results taken from US9717717B1, “Methods of treating cancer through the inhibition of USP7 and immune system modulation” (Progenra, Inc., priority 2015, dated 2017).

Legend:
[1] = pooled analysis of 14 phase I-III studies, various doses; cited from earlier work
UHRF1 = test: Immunoblot of UHRF1 level in treated Jurkat cells; type: cell-based; details: immunoblot (FIG. 6)
Procedure: (§1) FIG. 6 graphically illustrates a decrease in USP7 oncogenic substrates HDM2 and UHRF1 levels in Jurkat cells treated with the USP7i compound 5. 20 μg total cell lysates from each samples were separated on 10% SDS-PAGE and immunoblotted with antibodies against HDM2, UHRF1 and Actin (loading control).
(§2) Jurkat cells were incubated with an exemplary compound of the present invention (e.g., compound 5), washed, and incubated for an additional 0-96 h. USP7 was immunoprecipitated from lysates and USP7 activity measured. […] Total cell deubiquitinase activity can be performed to determine selectivity of these compounds (FIG. 5C). These experiments delineate a simple, powerful biomarker for determining the dose-efficacy relationship in the pre-clinical/clinical evaluation of irreversible USP7 inhibitors. Inhibitors were also tested in cells for effects on various PD markers, including two major USP7 substrates, HDM2 and UHRF1.

Murine Tregs = test: 3-day Treg suppression assay (CFSE-labeled T effector cell proliferation, FACS); type: cell-based; details: Tregs pre-treated with 10 μM for 2 h, washed (FIG. 7)
Procedure: FIG. 7 graphically illustrates the inhibition of Treg functions after treatment with USP7 inhibitor compound 5. Murine Tregs were pre-treated with compound 5 for 2 hrs, washed and incubated with carboxyfluorescein succinimidyl ester (CFSE) labeled T effector cells at varying concentrations for 3 days. T effector cell proliferation was monitored using FACS analysis. Percentage proliferation is plotted using Graphpad prism.
Initial in vitro determination of the effect of compounds on the Treg-Teff system was performed by co-culturing drug pretreated Treg cell with Teff cells for three days and determining the Teff proliferation by flow cytometry. The compounds that were active in enhancing Teff growth were then examined for their effect on biomarkers. The most interesting compounds were tested for their effect on tumor growth in immune competent mice inoculated with lung cancer cells subcutaneously.
3-day Treg suppression assay in which isolated Tregs were treated with DMSO or experimental compound, washed and added to wells in which T cell proliferation was induced by CD3 mAb plus APC; % proliferation of CFSE-labeled conventional (Tcon) cells is shown in blue for each Treg:Tcon ratio. […] Flow cytometry confirmed marked or moderate down-regulation of Foxp3 expression by Treg cells exposed to potential inhibitor for 2 hrs. […]

TC1 lung tumor = test: TC1 flank tumor model in immunocompetent mice; type: in vivo, B6 mice
Procedure: Inhibition was statistically significant at the p<0.05 level (**).
USP7 targeting inhibits flank tumor growth via a Treg-dependent mechanism in immunocompetent mice (FIGS. 8A and 8B). Eight week-old B6 mice were injected with 5×10^5 TC1 tumor cells, and 1 week later, when tumors had reached ˜100 mm^3, mice were implanted with 14 day Alzet pumps containing vehicle or USP7i at doses 0.6 mg/kg, 1 mg/kg, and 6 mg/kg. Tumor growth was measured twice weekly for 2 weeks, and the study continued for an additional time period without further dosing. At sacrifice, spleens, draining lymph nodes (DLN), and tumors can be assessed by flow cytometry, histology, immunohistology and qPCR. Such studies can be performed in both immunocompetent and immunodeficient mice.

USP7 core C223A = USP7 core C223A (Homo sapiens, UniProt Q93009, C223A); test: LC-MS detection of covalent adduct with USP7 core active site cysteine mutant C223A; type: binding; details: 5 μM C223A, 100 μM compound, room temperature, 4 hrs
Procedure: (§3) FIG. 4 provides data showing an example of the covalent irreversible nature of disclosed USP7 inhibitors. 5 μM purified USP7core WT or active site cysteine mutant C223A were incubated with 100 μM Compound 5 or DMSO at room temperature for 4 hrs, and then the protein/compound reaction products were mixed with equal volume of 0.1% Trifluoroacetic acid (TFA) before LC-MS injection. The samples were analyzed by reverse-phase liquid chromatography coupled to UV and MS detection (Agilent, 6220 Accurate-Mass Time-of-Flight (TOF) LC/MS). […] FIG. 4 provides data showing an example of the covalent irreversible nature of disclosed USP7 inhibitors. 5 μM purified USP7core WT or active site cysteine mutant C223A were incubated with 100 μM Compound 5 or DMSO at room temperature for 4 hrs, and then the protein/compound reaction products were mixed with equal volume of 0.1% Trifluoroacetic acid (TFA) before LC-MS injection. The samples were analyzed by reverse-phase liquid chromatography coupled to UV and MS detection (Agilent, 6220 Accurate-Mass Time-of-Flight (TOF) LC/MS).

USP7core WT = biological target: T1, USP7core WT (Homo sapiens, UniProt Q93009); test: LC-MS detection of covalent adduct with purified USP7core WT; type: binding; details: 5 μM USP7core WT, 100 μM compound, room temperature, 4 hrs
T1 construct: 5 μM purified USP7core WT or active site cysteine mutant C223A were incubated with 100 μM Compound 5
Procedure: as §3

HDM2 = test: Immunoblot of HDM2 level in treated Jurkat cells; type: cell-based; details: immunoblot (FIG. 6)
Procedure: as §1, §2

USP7 = biological target: T2, USP7 (Homo sapiens, UniProt Q93009); test: DUB activity of USP7 immunoprecipitated from treated Jurkat cells (Ub-EKL assay); type: cell-based; details: for USP7 catalytic activity returned after washout: Jurkat cells exposed for 2 hours
T2 construct: endogenous in cells; host or cells: Jurkat
Procedure: FIG. 5A-FIG. 5C graphically illustrate that the disclosed USP7 inhibitors of the invention are irreversible inhibitors. Jurkat cells were treated with 10 μM USP7i for indicated time period (FIG. 5A) or pulse treated for 2 h with 10 μM compound 5 (FIG. 5B), washed and incubated for the indicated time period followed by DUB activity measurement of immunoprecipitated USP7 as well as total cell lysate (FIG. 5C) using Ub-EKL assay as described previously (U.S. Pat. No. 8,680,139). A portion of the immunoprecipitated USP7 is separated on 10% SDS-PAGE and immunoblotted with anti-USP7 antibody to detect the level of USP7 protein (shown at the top of graphs in FIG. 5A and FIG. 5B). […] Jurkat cells were exposed to Compound 5 for 2 hours and the compounds were washed away followed by incubation for various time points. Cells were harvested, lysed and their USP7 immunoprecipitated and washed with buffer. […] Jurkat cells were incubated with an exemplary compound of the present invention (e.g., compound 5), washed, and incubated for an additional 0-96 h. USP7 was immunoprecipitated from lysates and USP7 activity measured. […] Total cell deubiquitinase activity can be performed to determine selectivity of these compounds (FIG. 5C). These experiments delineate a simple, powerful biomarker for determining the dose-efficacy relationship in the pre-clinical/clinical evaluation of irreversible USP7 inhibitors. Inhibitors were also tested in cells for effects on various PD markers, including two major USP7 substrates, HDM2 and UHRF1.

T2 sequence (Q93009 whole entry): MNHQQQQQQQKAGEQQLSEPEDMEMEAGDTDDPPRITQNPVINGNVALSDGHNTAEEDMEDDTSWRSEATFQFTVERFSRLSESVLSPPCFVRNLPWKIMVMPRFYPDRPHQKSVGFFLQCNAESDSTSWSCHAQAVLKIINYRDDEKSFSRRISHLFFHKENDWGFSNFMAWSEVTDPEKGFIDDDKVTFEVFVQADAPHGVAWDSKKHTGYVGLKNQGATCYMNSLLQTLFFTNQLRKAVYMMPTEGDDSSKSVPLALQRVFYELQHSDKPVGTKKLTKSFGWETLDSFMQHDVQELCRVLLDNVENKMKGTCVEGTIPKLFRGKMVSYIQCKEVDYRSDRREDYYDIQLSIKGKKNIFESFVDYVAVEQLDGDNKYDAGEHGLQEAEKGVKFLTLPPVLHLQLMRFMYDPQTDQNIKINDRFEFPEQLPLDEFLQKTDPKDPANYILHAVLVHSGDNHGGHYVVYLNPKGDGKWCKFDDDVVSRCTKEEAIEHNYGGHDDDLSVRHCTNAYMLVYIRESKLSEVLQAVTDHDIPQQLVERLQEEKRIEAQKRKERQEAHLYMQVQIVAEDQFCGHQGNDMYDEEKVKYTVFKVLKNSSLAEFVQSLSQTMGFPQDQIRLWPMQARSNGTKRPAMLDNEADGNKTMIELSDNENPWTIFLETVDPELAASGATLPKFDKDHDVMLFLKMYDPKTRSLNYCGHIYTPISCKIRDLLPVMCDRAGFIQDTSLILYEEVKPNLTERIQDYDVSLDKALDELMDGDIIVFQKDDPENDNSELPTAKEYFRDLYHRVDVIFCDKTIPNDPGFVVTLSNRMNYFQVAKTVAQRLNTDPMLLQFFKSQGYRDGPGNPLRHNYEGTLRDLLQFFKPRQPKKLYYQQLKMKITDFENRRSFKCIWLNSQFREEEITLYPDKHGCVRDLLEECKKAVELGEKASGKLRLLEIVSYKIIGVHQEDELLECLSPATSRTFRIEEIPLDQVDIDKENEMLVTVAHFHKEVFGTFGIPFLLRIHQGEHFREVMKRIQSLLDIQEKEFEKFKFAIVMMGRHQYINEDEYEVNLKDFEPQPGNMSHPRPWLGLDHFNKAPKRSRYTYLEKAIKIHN
USP7 core C223A, sequence (Q93009 214-521 C223A limits assumed): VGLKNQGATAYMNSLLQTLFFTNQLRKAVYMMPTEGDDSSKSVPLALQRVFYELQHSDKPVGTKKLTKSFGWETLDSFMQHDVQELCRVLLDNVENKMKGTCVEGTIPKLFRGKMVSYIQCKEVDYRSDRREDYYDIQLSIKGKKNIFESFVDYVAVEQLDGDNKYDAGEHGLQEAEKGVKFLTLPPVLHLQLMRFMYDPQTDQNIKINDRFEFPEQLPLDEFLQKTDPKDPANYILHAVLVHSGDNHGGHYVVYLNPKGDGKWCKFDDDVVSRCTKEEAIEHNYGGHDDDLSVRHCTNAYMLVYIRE
T1 sequence (Q93009 214-521 limits assumed): as the sequence (Q93009 214-521 C223A limits assumed) above, with A10C counted along it

Row | covalent adduct formation with USP7 core C223A (USP7 core C223A) | covalent adduct formation with USP7 core (USP7core WT) | USP7 catalytic activity returned after washout (USP7; washed, after 48 hours) | USP7 catalytic activity returned after washout (USP7; washed, after 72 hours) | USP7 activity after pulse treatment (USP7; Jurkat cells, 10 μM for 2 h, washed, even after 72 h (FIG. 5B)) | Molecule | patients with immune-related adverse effects [1] | UHRF1 level (UHRF1) | Treg suppressive functions (Murine Tregs) | TC1 lung tumor growth (TC1 lung tumor; Day 16, statistically significant p<0.05 (FIG. 8A, 8B)) | tumor regression (TC1 lung tumor; TC1 tumors (FIG. 8B)) | HDM2 level (HDM2) | catalytic activity of isolated USP7 (USP7; Jurkat cells, incubation with inhibitor for 1 h (FIG. 5A))
1 | – | – | – | – | – | ipilimumab | 64% | – | – | – | – | – | –
2 | failed to form an adduct | formed a covalent adduct | about 55% | 68% | prolonged inhibition of USP7 activity | CS(=O)(=O)c1cccc(NC(=O)c2cc([N+](=O)[O-])c(Sc3c(Cl)cncc3Cl)s2)c1 [Compound 5, 5-[(3,5-dichloropyridin-4-yl)sulfanyl]-N-[3-(methylsulfonyl)phenyl]-4-nitrothiophene-2-carboxamide] | – | decrease | marked impairment of Treg suppressive functions | inhibition of TC1 lung tumor growth | complete tumor regression in several mice | decrease | significant inhibition of catalytic activity
